pIC50: −log10 of the molar value.

The target of the assay is T1, human PDE10A full length (Homo sapiens, UniProt Q9Y233).
T1 construct: purchased Enzo Life Science, Lausen, Switzerland SE-534
Put plainly: PDE10A Scintillation Proximity Assay (SPA), human PDE10A full length assay. The note with it: 50 nM cGMP + 50 nM [3H]-cGMP, 20 minutes at room temperature, read-out: PDE10A inhibition IC50. It is filed as biochemical. How it is done:
The following test was carried out in order to determine the activity of the compounds of the present invention. PDE10 activity of the compounds of the present invention was determined using a Scintillation Proximity Assay (SPA)-based method similar to the one previously described (Fawcett, L. et al., Proc Natl Acad Sci USA (2000) 97(7):3702-3707).
The human PDE10A full length assay was performed in 96-well micro titer plates. The reaction mixture of 50 μl contained 20 mM HEPES pH=7.5/10 mM MgCl2/0.05 mg/ml BSA (Sigma cat. #A-7906), 50 nM cGMP (Sigma, cat. #G6129) and 50 nM [^3H]-cGMP (GE Healthcare, cat. #TRK392 S.A. 13.2Ci/mmol), 3.75 ng/well PDE10A enzyme (Enzo Life Science, Lausen, Switzerland cat #SE-534) with or without a specific test compound. A range of concentrations of the potential inhibitor was used to generate data for calculating the concentration of inhibitor resulting in 50% of the effect (e.g. IC50, the concentration of the competitor inhibiting PDE10A activity by 50%). Non-specific activity was tested without the enzyme. The reaction was initiated by the addition of the substrate solution (cGMP and [^3H]-cGMP) and allowed to progress for 20 minutes at room temperature. The reaction was terminated by adding 25 μl of YSi-SPA scintillation beads (GE Healthcare, cat. #RPNQ0150) in 18 mM zinc sulphate solution (stop reagent). After 1 h under shaking, the plate was centrifuged one minute at 170 g to allow beads to settle. Afterwards, radioactive counts were measured on a Perkin Elmer TopCount Scintillation plate reader.
(In general: In a scintillation proximity assay essentially only radioactivity close to the scintillant gives light.)

T1 sequence (Q9Y233 1-779 isoform Q9Y233-1): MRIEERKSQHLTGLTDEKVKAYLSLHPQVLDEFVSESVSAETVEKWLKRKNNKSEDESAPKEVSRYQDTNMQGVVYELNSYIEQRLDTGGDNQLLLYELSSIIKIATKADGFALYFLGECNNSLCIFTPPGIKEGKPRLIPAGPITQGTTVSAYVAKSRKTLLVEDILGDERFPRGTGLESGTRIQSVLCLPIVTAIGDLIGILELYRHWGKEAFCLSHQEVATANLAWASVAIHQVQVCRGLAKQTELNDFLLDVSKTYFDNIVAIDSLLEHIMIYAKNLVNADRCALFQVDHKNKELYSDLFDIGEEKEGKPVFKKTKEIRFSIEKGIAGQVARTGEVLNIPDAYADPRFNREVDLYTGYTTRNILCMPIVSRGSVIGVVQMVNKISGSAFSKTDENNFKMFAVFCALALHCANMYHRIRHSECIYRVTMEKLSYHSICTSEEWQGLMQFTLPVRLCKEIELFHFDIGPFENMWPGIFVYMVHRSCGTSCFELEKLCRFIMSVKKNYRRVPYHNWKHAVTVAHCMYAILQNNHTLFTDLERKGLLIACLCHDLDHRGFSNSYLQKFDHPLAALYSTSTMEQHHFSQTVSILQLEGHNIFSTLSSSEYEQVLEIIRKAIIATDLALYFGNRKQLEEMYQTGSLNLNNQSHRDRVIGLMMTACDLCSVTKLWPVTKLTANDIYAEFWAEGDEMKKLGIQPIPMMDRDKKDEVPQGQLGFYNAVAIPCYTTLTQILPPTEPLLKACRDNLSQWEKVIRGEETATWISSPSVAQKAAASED

Regarding `COCCN(CCOC)C(=O)c1cnn(C)c1C(=O)Nc1ccn2nc(-c3ccccc3)nc2c1` [Example 6, N4,N4-bis(2-methoxyethyl)-1-methyl-N5-(2-phenyl-[1,2,4]triazolo[1,5-a]pyridin-7-yl)-1H-pyrazole-4,5-dicarboxamide], the pIC50 (as a rule, the IC50 on a negative log10 scale, so that one unit is a factor of ten) was 9.37.
As to `Cn1ncc(C(=O)N2CCOCC2)c1C(=O)Nc1ccn2nc(-c3ccccc3)nc2c1` [Example 12, 1-Methyl-4-(morpholine-4-carbonyl)-N-(2-phenyl-[1,2,4]triazolo[1,5-a]pyridin-7-yl)-1H-pyrazole-5-carboxamide], the pIC50 was 9.57.
Take `CN(CCF)C(=O)c1cnn(C)c1C(=O)Nc1ccn2nc(N3CCOCC3)nc2c1` [Example 21, N4-(2-Fluoroethyl)-N4,1-dimethyl-N5-(2-morpholino-[1,2,4]triazolo[1,5-a]pyridin-7-yl)-1H-pyrazole-4,5-dicarboxamide]: the pIC50 is 7.58.
As for `CN(CCF)C(=O)c1cnn(C)c1C(=O)Nc1ccn2nc(-c3ccccc3)nc2c1` [Example 26, 2-Methyl-2H-pyrazole-3,4-dicarboxylic acid 4-[(2-fluoro-ethyl)-methyl-amide]3-[(2-phenyl-[1,2,4]triazolo[1,5-a]pyridin-7-yl)-amide]], the pIC50 was 9.37.
As for `CC(C)OC(=O)c1cnn(C)c1C(=O)Nc1ccn2nc(-c3ccccc3)nc2c1` [Example 27, Isopropyl 1-methyl-5-(2-phenyl-[1,2,4]triazolo[1,5-a]pyridin-7-ylcarbamoyl)-1H-pyrazole-4-carboxylate], the figure is 8.10; as for `Cn1ncc(C(=O)N2CCC2)c1C(=O)Nc1ccn2nc(C(=O)NCCC(F)(F)F)nc2c1` [Example 33, 7-(4-(Azetidine-1-carbonyl)-1-methyl-1H-pyrazole-5-carboxamido)-N-(3,3,3-trifluoropropyl)-[1,2,4]triazolo[1,5-a]pyridine-2-carboxamide], 7.54; as for `Cn1ncc(C(=O)N2CCCC2)c1C(=O)Nc1ccn2nc(N3CCOCC3)nc2c1` [Example 42, 1-Methyl-N-(2-morpholino-[1,2,4]triazolo[1,5-a]pyridin-7-yl)-4-(pyrrolidine-1-carbonyl)-1H-pyrazole-5-carboxamide], 8.29.
As for `Cn1ncc(C(=O)N2CC(F)C2)c1C(=O)Nc1ccn2nc(N3CCOCC3)nc2c1` [Example 43, 4-(3-Fluoroazetidine-1-carbonyl)-1-methyl-N-(2-morpholino-[1,2,4]triazolo[1,5-a]pyridin-7-yl)-1H-pyrazole-5-carboxamide], the figure is 8.42; as for `CN(C(=O)c1cnn(C)c1C(=O)Nc1ccn2nc(N3CCOCC3)nc2c1)C1CC1` [Example 53, N4-cyclopropyl-N4,1-dimethyl-N5-(2-morpholino-[1,2,4]triazolo[1,5-a]pyridin-7-yl)-1H-pyrazole-4,5-dicarboxamide], 8.95.
For `CN(CC(F)(F)F)C(=O)c1cnn(C)c1C(=O)Nc1ccn2nc(N3CCOCC3)nc2c1` [Example 54, 2-Methyl-2H-pyrazole-3,4-dicarboxylic acid 4-[methyl-(2,2,2-trifluoro-ethyl)-amide]3-[(2-morpholin-4-yl-[1,2,4]triazolo[1,5-a]pyridin-7-yl)-amide]], the negative-log IC50 (pIC50) is 7.09.
As for `CN(C(=O)c1cnn(C)c1C(=O)Nc1ccn2nc(-c3cccnc3)nc2c1)C1CC1` [Example 55, 2-Methyl-2H-pyrazole-3,4-dicarboxylic acid 4-(cyclopropyl-methyl-amide)3-[(2-pyridin-3-yl-[1,2,4]triazolo[1,5-a]pyridin-7-yl)-amide]], the figure is 9.35; as for `CN(C)C(=O)c1nc2cc(NC(=O)c3c(C(=O)N4CCC4)cnn3C)ccn2n1` [Example 62, 7-{[4-(Azetidine-1-carbonyl)-2-methyl-2H-pyrazole-3-carbonyl]-amino}-[1,2,4]triazolo[1,5-a]pyridine-2-carboxylic acid dimethylamide], 6.95; as for `COc1ccccc1-c1nc2cc(NC(=O)c3c(C(=O)N4CCOCC4)cnn3C)ccn2n1` [Example 69, 2-Methyl-4-(morpholine-4-carbonyl)-2H-pyrazole-3-carboxylic acid [2-(2-methoxy-phenyl)-[1,2,4]triazolo[1,5-a]pyridin-7-yl]-amide], 9.17.
Consider `COc1cccc(-c2nc3cc(NC(=O)c4c(C(=O)N5CCC5)cnn4C)ccn3n2)c1` [Example 75, 4-(Azetidine-1-carbonyl)-2-methyl-2H-pyrazole-3-carboxylic acid [2-(3-methoxy-phenyl)-[1,2,4]triazolo[1,5-a]pyridin-7-yl]-amide], for which the pIC50 was 9.51.
With `COc1cccc(-c2nc3cc(NC(=O)c4c(C(=O)N5CCOCC5)cnn4C)ccn3n2)c1` [Example 76, 2-Methyl-4-(morpholine-4-carbonyl)-2H-pyrazole-3-carboxylic acid [2-(3-methoxy-phenyl)-[1,2,4]triazolo[1,5-a]pyridin-7-yl]-amide], the pIC50 is 8.29.
Consider `COCCN(C)C(=O)c1cnn(C)c1C(=O)Nc1ccn2nc(-c3cccc(OC)c3)nc2c1` [Example 77, 2-Methyl-2H-pyrazole-3,4-dicarboxylic acid 4-[(2-methoxy-ethyl)-methyl-amide]3-{[2-(3-methoxy-phenyl)-[1,2,4]triazolo[1,5-a]pyridin-7-yl]-amide}], for which the pIC50 was 9.24.
Consider `COc1cccc(-c2nc3cc(NC(=O)c4c(C(=O)N(C)C)cnn4C)ccn3n2)c1` [Example 78, 2-Methyl-2H-pyrazole-3,4-dicarboxylic acid 4-dimethylamide 3-{[2-(3-methoxy-phenyl)[1,2,4]triazolo[1,5-a]pyridin-7-yl]-amide}], for which the pIC50 is 9.49.
For `CCN(C)C(=O)c1cnn(C)c1C(=O)Nc1ccn2nc(-c3cccc(OC)c3)nc2c1` [Example 79, 2-Methyl-2H-pyrazole-3,4-dicarboxylic acid 4-(ethyl-methyl-amide)3-{[2-(3-methoxy-phenyl)-[1,2,4]triazolo[1,5-a]pyridin-7-yl]-amide}], the pIC50 is 8.76.
As for `Cn1ncc(C(=O)N2CCOCC2)c1C(=O)Nc1ccn2nc(-c3cccc(O)c3)nc2c1` [Example 80, 2-Methyl-4-(morpholine-4-carbonyl)-2H-pyrazole-3-carboxylic acid [2-(3-hydroxy-phenyl)-[1,2,4]triazolo[1,5-a]pyridin-7-yl]-amide], the figure is 9.39; as for `Cn1ncc(C(=O)N2CCOCC2)c1C(=O)Nc1ccn2nc(-c3cccc(OCCF)c3)nc2c1` [Example 81, 2-Methyl-4-(morpholine-4-carbonyl)-2H-pyrazole-3-carboxylic acid {2-[3-(2-fluoro-ethoxy)-phenyl]-[1,2,4]triazolo[1,5-a]pyridin-7-yl}-amide], 9.23.
As for `Cn1ncc(C(=O)N2CCOCC2)c1C(=O)Nc1ccn2nc(-c3cccc(OCF)c3)nc2c1` [Example 82, 2-Methyl-4-(morpholine-4-carbonyl)-2H-pyrazole-3-carboxylic acid [2-(3-fluoromethoxy-phenyl)-[1,2,4]triazolo[1,5-a]pyridin-7-yl]-amide], the figure is 9.11; as for `CCN(C)C(=O)c1cnn(C)c1C(=O)Nc1ccn2nc(-c3cccc(OCCF)c3)nc2c1` [Example 83, 2-Methyl-2H-pyrazole-3,4-dicarboxylic acid 4-(ethyl-methyl-amide)3-({2-[3-(2-fluoro-ethoxy)-phenyl]-[1,2,4]triazolo[1,5-a]pyridin-7-yl}-amide)], 9.20.
In the case of `CCN(C)C(=O)c1cnn(C)c1C(=O)Nc1ccn2nc(-c3cccc(OCF)c3)nc2c1` [Example 84, 2-Methyl-2H-pyrazole-3,4-dicarboxylic acid 4-(ethyl-methyl-amide)3-{[2-(3-fluoromethoxy-phenyl)-[1,2,4]triazolo[1,5-a]pyridin-7-yl]-amide}], the pIC50 is 9.27.
For the compound `CN(C)C(=O)c1cnn(C)c1C(=O)Nc1ccn2nc(-c3cccc(OCCF)c3)nc2c1` [Example 85, 2-Methyl-2H-pyrazole-3,4-dicarboxylic acid 4-dimethylamide 3-({2-[3-(2-fluoro-ethoxy)-phenyl]-[1,2,4]triazolo[1,5-a]pyridin-7-yl}-amide)], the pIC50 is 9.14.
As for `CN(C)C(=O)c1cnn(C)c1C(=O)Nc1ccn2nc(-c3cccc(OCF)c3)nc2c1` [Example 86, 2-Methyl-2H-pyrazole-3,4-dicarboxylic acid 4-dimethylamide 3-{[2-(3-fluoromethoxy-phenyl)-[1,2,4]triazolo[1,5-a]pyridin-7-yl]-amide}], the figure is 9.22.
As for `COCCN(C)C(=O)c1cnn(C)c1C(=O)Nc1ccn2nc(-c3cccc(O)c3)nc2c1` [Example 87, 2-Methyl-2H-pyrazole-3,4-dicarboxylic acid 3-{[2-(3-hydroxy-phenyl)-[1,2,4]triazolo[1,5-a]pyridin-7-yl]-amide} 4-[(2-methoxy-ethyl)-methyl-amide]], the figure is 9.37.
